Data published in PubChem BioAssay (NCI).
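Growth conditions: 96-well plates. Treatment: test compound, 48 hours, 5 concentrations. Analysis: linear interpolation between bracketing concentrations; unreached endpoints set to highest concentration. GI50: concentration for 50% inhibition of growth. TGI marks complete inhibition of growth.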

Key:
Assay in all cases: NCI anticancer screen, dose series, 48 h
NCI-H226 lung = test system: NCI-H226 lung
786-0 renal = test system: 786-0 renal
UACC-62 melanoma = test system: UACC-62 melanoma
SK-MEL-28 melanoma = test system: SK-MEL-28 melanoma
PC-3 prostate = test system: PC-3 prostate
MDA-MB-231 breast = test system: MDA-MB-231 breast
OVCAR-4 ovarian = test system: OVCAR-4 ovarian
MALME-3M melanoma = test system: MALME-3M melanoma
SF-295 CNS = test system: SF-295 CNS
UO-31 renal = test system: UO-31 renal
HL-60(TB) leukemia = test system: HL-60(TB) leukemia
MDA-MB-435 = test system: MDA-MB-435
A549 NSCLC = test system: A549 NSCLC
HCT-116 colon = test system: HCT-116 colon
MOLT-4 leukemia = test system: MOLT-4 leukemia
CCRF-CEM leukemia = test system: CCRF-CEM leukemia
RXF 393 renal = test system: RXF 393 renal
UACC-257 melanoma = test system: UACC-257 melanoma
HOP-62 NSCLC = test system: HOP-62 NSCLC
HOP-92 NSCLC = test system: HOP-92 NSCLC
SN12C renal = test system: SN12C renal
COLO 205 colon = test system: COLO 205 colon
OVCAR-3 ovarian = test system: OVCAR-3 ovarian
M14 melanoma = test system: M14 melanoma
IGROV1 ovarian = test system: IGROV1 ovarian
KM12 colon = test system: KM12 colon
SNB-75 CNS = test system: SNB-75 CNS
HS 578T breast = test system: HS 578T breast
SK-MEL-5 melanoma = test system: SK-MEL-5 melanoma

O=c1oc2ccc(F)cc2c(=O)n1-c1ccc(I)cc1F
GI50 (NCI-H226 lung): 0.472 µM | TGI (NCI-H226 lung): 4.5 µM | GI50 (786-0 renal): 1.67 µM | TGI (786-0 renal): 8.1 µM | GI50 (UACC-62 melanoma): 0.293 µM | TGI (UACC-62 melanoma): 1.1 µM | GI50 (SK-MEL-28 melanoma): 0.392 µM | TGI (SK-MEL-28 melanoma): 1.89 µM | GI50 (PC-3 prostate): 1.48 µM | TGI (PC-3 prostate): 6.58 µM | GI50 (MDA-MB-231 breast): 0.614 µM | TGI (MDA-MB-231 breast): 3.61 µM | GI50 (OVCAR-4 ovarian): 0.298 µM | GI50 (MALME-3M melanoma): 0.305 µM | TGI (MALME-3M melanoma): 1.17 µM | GI50 (SF-295 CNS): 1.86 µM | TGI (SF-295 CNS): 3.68 µM | GI50 (UO-31 renal): 0.241 µM | TGI (UO-31 renal): 1.46 µM | GI50 (HL-60(TB) leukemia): 0.366 µM | TGI (HL-60(TB) leukemia): 1.83 µM | GI50 (MDA-MB-435): 0.419 µM | TGI (MDA-MB-435): 3.94 µM | GI50 (A549 NSCLC): 2.4 µM | TGI (A549 NSCLC): > 94.7 µM | GI50 (HCT-116 colon): 0.387 µM | TGI (HCT-116 colon): 2.03 µM | GI50 (MOLT-4 leukemia): 1.07 µM | TGI (MOLT-4 leukemia): 3.65 µM | GI50 (CCRF-CEM leukemia): 1.83 µM | TGI (CCRF-CEM leukemia): 52 µM | GI50 (RXF 393 renal): 0.543 µM | TGI (RXF 393 renal): 3.3 µM | GI50 (UACC-257 melanoma): 0.432 µM | TGI (UACC-257 melanoma): 4.79 µM | GI50 (HOP-62 NSCLC): 0.916 µM | TGI (HOP-62 NSCLC): 14.9 µM | GI50 (HOP-92 NSCLC): 0.206 µM | TGI (HOP-92 NSCLC): 0.577 µM | GI50 (SN12C renal): 0.381 µM | TGI (SN12C renal): 5.45 µM | GI50 (COLO 205 colon): 2.67 µM | TGI (COLO 205 colon): 8.82 µM | GI50 (OVCAR-3 ovarian): 0.37 µM | TGI (OVCAR-3 ovarian): 6.36 µM | GI50 (M14 melanoma): 0.49 µM | TGI (M14 melanoma): 4.27 µM | GI50 (IGROV1 ovarian): 0.397 µM | TGI (IGROV1 ovarian): 15.6 µM | GI50 (KM12 colon): 1.92 µM | TGI (KM12 colon): 5.38 µM | GI50 (SNB-75 CNS): 0.368 µM | TGI (SNB-75 CNS): 10.4 µM | GI50 (HS 578T breast): 0.352 µM | TGI (HS 578T breast): 2.52 µM | GI50 (SK-MEL-5 melanoma): 0.224 µM | TGI (SK-MEL-5 melanoma): 0.521 µM
